Like-named read-outs stand apart in the source and are kept apart here.
How the values were obtained:
[1] = Cytotoxicity assay (MTT), J774A.1 cell line; assay type: cell-based; conditions: mouse
Protocol: (§1) Adherent BALB/c mouse macrophage cell line J774A.1 (ATCC® TIB 67™) and suspension human acute monocytic leukemic cell line THP-1 (ATCC® TIB-202™) were purchased from DSMZ, Germany were cultured and maintained in DMEM medium (Gibco) and RPMI 1640 (Sigma), respectively, supplemented with 10% FBS, 1% penicillin-streptomycin (Sigma) and L-glutamine 200 mM (Sigma), at 37 °C, 5% CO2.
(§2) Cell lines J774A.1 and THP-1 were used to estimate CC50 of the peroxides. Cells were plated in 96-well flat bottom culture plates (VWR) at 5 × 10^5 cells/mL. The monocytic cell line THP-1 was differentiated in RPMI medium with phorbol myristate acetate (PMA) (25 ng/mL; Sigma) for 24 h, followed by a washing step with RPMI medium. Six serial concentrations of the compounds (Table 3) were added in four replicates and the plates were incubated at 37 °C ± 1 °C, 5% CO2 for 48 h. An untreated control (cells in DMEM or RPMI medium plus 0.5% DMSO as vehicle) and blank (medium alone) were plated out in quadruplicate. After the incubation period, 20 µL/well of MTT [3-(4,5-dimethylthiazol-2-yl)-2,5-diphenyltetrazolium bromide] was added to a final concentration of 5 µg/mL in 1× phosphate-buffered saline (PBS, Merck), with an additional 4 h incubation at 36 °C, as previously described. The formazan salts were resuspended in 2-propanol (Merck) and the cell viability was determined by measuring absorbance with a Synergy ™HTX Multi Mode Microplate Reader at 595 nm (Dynex Technologies). The CC50 values were calculated fitting the data as a non-linear regression with variable slope using a dose-response inhibitory model, in the GraphPad Prism V 8.0 program. Each compound was tested in three independent assays.

[2] = Cytotoxicity assay (MTT), PMA-differentiated THP-1 cell line; assay type: cell-based; conditions: human
Protocol: as §1, §2

[3] = system: L. infantum IMT151 promastigotes; experiment: Promastigotes susceptibility assay (MTT), L. infantum; assay type: cell-based; conditions: Leishmania infantum, read-out: IC50 ± SD, L. infantum promastigotes
Protocol: (§3) Promastigote forms of strains of L. infantum (MHOM/PT/1988/IMT151) and L. donovani (MHOM/BD/2006/BD14) were cultured at 24 °C ± 1 °C in M199 medium (Sigma) supplemented with 20% foetal bovine serum (FBS, Sigma) and 1% penicillin-streptomycin (Sigma). L. infantum strain belongs to IHMT, Portugal cryobank collection and the L. donovani strain was kindly provided by Dr. Katrin Kuhls, Technical University of Applied Sciences Wildau, Germany. Promastigotes used for the experiments had 7 to 12 in vitro passages in culture after isolation from mice, in order to keep virulence, and were used when the stationary phase of growth was reached (day 5 to 6), corresponding to the highest promastigotes density.
(§4) For the determination of the antileishmanial activity and IC50, promastigotes of L. infantum and L. donovani were plated in 96-well flat bottom culture plates at a concentration of 5 × 10^6 parasites/mL and incubated with six serial concentrations of each compound (Table 3), in four replicates, including the control drugs, amphotericin B, miltefosine and pentamidine. One untreated control (parasites with M199 medium plus 0.5% DMSO as vehicle solution) and one blank (M199 medium alone) were also plated out in quadruplicate. After 48 h incubation at 24 °C ± 1 °C, the inhibitory activity of the compounds was evaluated using the MTT, as previously described, with an additional 4 h incubation at 36 °C. Results were expressed in terms of percentage of parasite viability relative to nontreated control and IC50 was calculated fitting the data as a non-linear regression with variable slope using a dose-response inhibitory model, in the GraphPad Prism V 8.0 program. Each compound was tested in three independent assays. […]

[4] = system: L. donovani BD14 promastigotes; experiment: Promastigotes susceptibility assay (MTT), L. donovani; assay type: cell-based; conditions: Leishmania donovani, read-out: IC50 ± SD, L. donovani promastigotes
Protocol: as §3, §4

[5] = system: L. infantum IMT151 intracellular amastigotes; experiment: Intracellular amastigotes assay in J774A.1 macrophages, L. infantum; assay type: cell-based; conditions: Leishmania infantum, read-out: IC50 ± SD, L. infantum intracellular amastigotes
Protocol: (§5) The intracellular assay using the macrophage J774A.1 cell line was performed with the compounds that presented best SI on the promastigote’s susceptibility assay. J774A.1 cells were adjusted to 2.5 × 10^5 cells/mL in supplemented DMEM medium. 200 μL/well of the cell suspension was placed in 16 well Lab Tek culture glass slides (Nunc), and incubated at 37 °C ± 1 °C, 5% CO2, for 3 h, to enable the cells to adhere to the slides. After a washing step with DMEM to discard non-attached cells, the cells were infected with 2.5 × 10^6 cells/mL promastigotes in a 10:1 parasite-host cell proportion for 24 h. Compounds and control drugs were added in two replicates of six serial concentrations (Table 3). As negative control, macrophages were cultivated in medium and DMSO, as vehicle solution (0.5% v/v). Slides were incubated for 48 h at the same temperature. After a washing step with 1× PBS (Sigma), slides were fixed and stained, and the infection index was calculated according to [34] by counting the number of intracellular amastigotes per 100 macrophages, in treated and untreated cells. Two independent experiments were performed to determine the amastigotes IC50 of each compound, which was calculated by fitting the data as a non-linear regression with variable slope using a dose-response inhibitory model, in the GraphPad Prism V 8.0 program. SI was determined as described above.

[6] = system: L. donovani BD14 intracellular amastigotes; experiment: Intracellular amastigotes assay in J774A.1 macrophages, L. donovani; assay type: cell-based; conditions: Leishmania donovani, read-out: IC50 ± SD, L. donovani intracellular amastigotes
Protocol: as §5

[7] = system: L. infantum promastigotes; experiment: Promastigotes DNA fragmentation (agarose gel); assay type: cell-based, Leishmania infantum; conditions: IC50 concentrations, 24 h
Protocol: 2 mM H2O2 was used as DNA damage inductor and non-treated cells were used as control. After centrifugation (10 min, 800× g) DNA was extracted using a commercial extraction kit (High Template DNA Preparation Kit, Roche, Germany), according to the manufacturer’s instructions.

[8] = 48 h incubation, MTT, read-out: CC50 ± SD, J774A.1 Cell Line
[9] = 48 h incubation, MTT, read-out: CC50 ± SD, THP-1 Cell Line
[10] = J774A.1 macrophage cells, 48 h incubation, MTT, read-out: CC50 ± SD, J774A.1 Cell Line
[11] = PMA-differentiated THP-1 cells, 48 h incubation, MTT, read-out: CC50 ± SD, THP-1 Cell Line
[12] = J774.A1, 48 h incubation, J774A.1 host cells

## O=C1CCC2(CC1)OOC1(O2)C2CC3CC(C2)CC1C3 (stereo not drawn) [LC50, Dispiro[cyclohexane-1,3'-[1,2,4]trioxolane-5',2''-tricyclo[3.3.1.13,7]decan]-4-one]
[1]; [8]
  CC50 at 48 h: 519 ± 140 µM
[2]; [9]
  CC50 at 48 h: 713 ± 18.4 µM
[3]; 48 h
  IC50: 378.9 ± 2.8 µM
[4]; 48 h
  IC50: 354 ± 8.4 µM

## OCC1CCC2(CC1)OOC1(O2)C2CC3CC(C2)CC1C3 (stereo not drawn) [LC93]
[1]; [10]
  CC50 at 48 h: 12 ± 0.5 µM
[2]; [11]
  CC50 at 48 h: 185 ± 16.1 µM
[3]; 48 h incubation, MTT
  IC50: 435 ± 22.7 µM
[4]; 48 h incubation, MTT
  IC50: 153 ± 22.4 µM

## O=S1(=O)N=C(OCC2CCC3(CC2)OOC2(O3)C3CC4CC(C3)CC2C4)c2ccccc21 (stereo not drawn) [LC129]
[1]; [10]
  CC50 at 48 h: 323 ± 24.5 µM
[2]; [11]
  CC50 at 48 h: 356 ± 31.4 µM
[3]; 48 h incubation, MTT
  IC50: 266 ± 13.3 µM

## Cn1nnc(NCC2CCC3(CC2)OOC2(O3)C3CC4CC(C3)CC2C4)n1 (stereo not drawn) [LC131]
[1]; [10]
  CC50 at 48 h: 34.1 ± 14.5 µM
[2]; [11]
  CC50 at 48 h: 78.2 ± 14.1 µM
[3]; 48 h incubation, MTT
  IC50: 321 ± 11.8 µM
[4]; 48 h incubation, MTT
  IC50: 124 ± 19 µM

## c1ccc(-n2nnnc2OCC2CCC3(CC2)OOC2(O3)C3CC4CC(C3)CC2C4)cc1 (stereo not drawn) [LC132]
[1]; [10]
  CC50 at 48 h: 45.8 ± 19.9 µM
[2]; [11]
  CC50 at 48 h: 99.8 ± 16.4 µM
[3]; 48 h incubation, MTT
  IC50: 13 ± 1.7 µM
[4]; 48 h incubation, MTT
  IC50: 14.3 ± 5.5 µM
[5]; [12]
  IC50: 13.2 ± 5.2 µM
[6]; [12]
  IC50: 9.4 ± 0.1 µM
[7]
  genomic DNA fragmentation: did not produce DNA fragmentation

## C1C2CC3CC1CC(C2)C31OOC2(CCC(Nc3nnn[nH]3)CC2)O1 (stereo not drawn) [LC136, N-1H-1,2,3,4-Tetraazol-5-yl-dispiro[cyclohexane-1,3'-[1,2,4]trioxolane-5',2''-tricyclo[3.3.1.13,7]decan]-4-ylamine]
[1]; [10]
  CC50 at 48 h: 113 ± 13.8 µM
[2]; [11]
  CC50 at 48 h: 250 ± 4.1 µM
[3]; 48 h incubation, MTT
  IC50: 434 ± 6.4 µM
[4]; 48 h incubation, MTT
  IC50: 232 ± 28.4 µM

## C1CCC2(CC1)OOC1(OO2)C2CC3CC(C2)CC1C3 [LC137]
[1]; [8]
  CC50 at 48 h: 443 ± 44 µM
[2]; [9]
  CC50 at 48 h: 3569 ± 22 µM
[3]; 48 h
  IC50: 137.1 ± 0.2 µM
[4]; 48 h
  IC50: 143 ± 16.5 µM
[5]; J774.A1, 48 h
  IC50: 168 ± 8.9 µM
[6]; J774.A1, 48 h
  IC50: 88.3 ± 14.2 µM

## C1CC2(CCN1)OOC1(OO2)C2CC3CC(C2)CC1C3 [LC139]
[1]; [8]
  CC50 at 48 h: 913 ± 70.7 µM
[2]; [9]
  CC50 at 48 h: 115 ± 11.4 µM
[3]; 48 h
  IC50: 472 ± 39.2 µM
[4]; 48 h
  IC50: 507 ± 53.3 µM

## O=C1CCC2(CC1)OOC1(OO2)C2CC3CC(C2)CC1C3 [LC140]
[1]; [10]
  CC50 at 48 h: 678 ± 29.9 µM
[2]; [11]
  CC50 at 48 h: 1400 ± 76 µM
[3]; 48 h incubation, MTT
  IC50: 258 ± 6.4 µM
[4]; 48 h incubation, MTT
  IC50: 460 ± 38.3 µM

## OCC1CCC2(CC1)OOC1(OO2)C2CC3CC(C2)CC1C3 (stereo not drawn) [LC146]
[1]; [10]
  CC50 at 48 h: 1465 ± 13 µM
[2]; [11]
  CC50 at 48 h: 3220 ± 72 µM
[3]; 48 h incubation, MTT
  IC50: 492 ± 22.7 µM
[4]; 48 h incubation, MTT
  IC50: 793 ± 37.2 µM

## C1C2CC3CC1CC(C2)C31OOC2(CCC(Nc3nnn[nH]3)CC2)OO1 (stereo not drawn) [LC163]
[1]; [10]
  CC50 at 48 h: 474 ± 83.5 µM
[2]; [11]
  CC50 at 48 h: 753 ± 90.3 µM
[3]; 48 h incubation, MTT
  IC50: 190 ± 21.6 µM
[4]; 48 h incubation, MTT
  IC50: 532 ± 105 µM

## CCCCCCCCCCCCCCCCOP(=O)([O-])OCC[N+](C)(C)C [Miltefosine, reference compound]
[1]
  CC50 at 48 h: 94.4 ± 17.3 µM
[2]
  CC50 at 48 h: 100 ± 12.1 µM
[3]; 48 h incubation, MTT
  IC50: 149 ± 3.5 µM
[4]; 48 h incubation, MTT
  IC50: 24.2 ± 10 µM
[5]; [12]
  IC50: 16.8 ± 11.7 µM
[6]; [12]
  IC50: 13.3 ± 3 µM
